Reference: the NIST ThermoML archive (doi:10.1016/j.fluid.2018.09.026)
Several values for one entry are separate records, joined by “and”; a condition that tells them apart may be missing. Equal entries are not always repeated.

Settings: Liquid; for mass density: Vibrating tube method; for viscosity: Vibrating wire viscometry

OCCOCCO [diethylene glycol]
Settings	mass density [kg/m3]	viscosity
323.15 K, 19770 kPa	1103.6	–
323.15 K, 24680 kPa	1105.8	–
323.15 K, 29600 kPa	1108	–
323.15 K, 34530 kPa	1110.1	–
323.15 K, 39360 kPa	1112.2	–
323.15 K, 44290 kPa	1114.3	–
323.15 K, 49260 kPa	1116.3	–
323.15 K, 54100 kPa	1118.2	–
323.15 K, 59060 kPa	1120.2	–
323.15 K, 63880 kPa	1122	–
323.15 K, 68770 kPa	1123.8	–
333.15 K, 100 kPa	1087	–
333.15 K, 660 kPa	1087.3	–
333.15 K, 1120 kPa	1087.5	–
333.15 K, 1630 kPa	1087.8	–
333.15 K, 2100 kPa	1088	–
333.15 K, 3070 kPa	1088.5	–
333.15 K, 5060 kPa	1089.5	–
333.15 K, 7050 kPa	1090.5	–
333.15 K, 9930 kPa	1091.9	–
333.15 K, 14780 kPa	1094.3	–
333.15 K, 19770 kPa	1096.7	–
333.15 K, 24660 kPa	1099	–
333.15 K, 29540 kPa	1101.2	–
333.15 K, 34500 kPa	1103.4	–
333.15 K, 39330 kPa	1105.5	–
333.15 K, 44230 kPa	1107.6	–
333.15 K, 49130 kPa	1109.7	–
333.15 K, 54060 kPa	1111.7	–
333.15 K, 59020 kPa	1113.7	–
333.15 K, 63840 kPa	1115.7	–
333.15 K, 68830 kPa	1117.5	–
333.28 K, 210 kPa	–	7.305 mPa·s [middle of 6 runs]
333.28 K, 1080 kPa	–	7.347 mPa·s and 7.376 mPa·s and 7.374 mPa·s
333.28 K, 2290 kPa	–	7.397 mPa·s [middle of 6 runs]
333.28 K, 5100 kPa	–	7.491 mPa·s
333.28 K, 5110 kPa	–	7.506 mPa·s and 7.492 mPa·s
333.28 K, 5120 kPa	–	7.53 mPa·s and 7.547 mPa·s
333.28 K, 10340 kPa	–	7.758 mPa·s and 7.739 mPa·s
333.28 K, 10360 kPa	–	7.749 mPa·s and 7.734 mPa·s
333.28 K, 19960 kPa	–	8.178 mPa·s [middle of 5 runs]
333.28 K, 30150 kPa	–	8.721 mPa·s and 8.673 mPa·s
333.28 K, 30160 kPa	–	8.678 mPa·s and 8.671 mPa·s
333.28 K, 40000 kPa	–	9.197 mPa·s
333.28 K, 40010 kPa	–	9.192 mPa·s and 9.199 mPa·s and 9.178 mPa·s
333.28 K, 50250 kPa	–	9.728 mPa·s and 9.806 mPa·s
333.28 K, 50260 kPa	–	9.736 mPa·s
333.28 K, 68880 kPa	–	10.71 mPa·s
333.28 K, 69100 kPa	–	10.77 mPa·s
333.28 K, 69180 kPa	–	10.8 mPa·s
342.75 K, 250 kPa	–	5.567 mPa·s and 5.585 mPa·s and 5.609 mPa·s
342.75 K, 260 kPa	–	5.588 mPa·s and 5.573 mPa·s
342.75 K, 1040 kPa	–	5.634 mPa·s [middle of 5 runs]
342.75 K, 2130 kPa	–	5.655 mPa·s [middle of 5 runs]
342.75 K, 5010 kPa	–	5.77 mPa·s
342.75 K, 5020 kPa	–	5.764 mPa·s and 5.765 mPa·s
342.75 K, 9990 kPa	–	5.9 mPa·s and 5.894 mPa·s and 5.912 mPa·s
342.75 K, 10000 kPa	–	5.925 mPa·s
342.75 K, 20270 kPa	–	6.257 mPa·s and 6.245 mPa·s
342.75 K, 20280 kPa	–	6.256 mPa·s and 6.268 mPa·s
342.75 K, 30150 kPa	–	6.641 mPa·s [middle of 6 runs]
342.75 K, 39690 kPa	–	6.989 mPa·s
342.75 K, 39700 kPa	–	6.991 mPa·s
342.75 K, 39710 kPa	–	6.946 mPa·s and 6.939 mPa·s and 6.957 mPa·s
342.75 K, 50090 kPa	–	7.319 mPa·s [middle of 6 runs]
342.75 K, 70440 kPa	–	8.133 mPa·s
342.75 K, 70450 kPa	–	8.148 mPa·s
342.75 K, 70460 kPa	–	8.145 mPa·s
342.75 K, 70480 kPa	–	8.152 mPa·s
342.75 K, 70500 kPa	–	8.131 mPa·s
342.75 K, 70510 kPa	–	8.177 mPa·s
343.15 K, 100 kPa	1079.7	–
343.15 K, 670 kPa	1080	–
343.15 K, 1100 kPa	1080.2	–
343.15 K, 1520 kPa	1080.4	–
343.15 K, 2120 kPa	1080.7	–
